Measurements published in PubChem BioAssay AID686969 (The Scripps Research Institute Molecular Screening Center, 2013).
Activity calls are given as the source filed them. How the calls were made is not given here.

These compounds were tested against methionyl-tRNA synthetase (Trypanosoma brucei) (assay: inhibition of trypanosomal methionyl-tRNA synthetase – biochemical, fluorescence polarization, dose response, orthogonal assay for T. brucei MetRS inhibitor project, late-stage follow-up (AID 686969)).

Compound | IC50
O=C(NCc1nc2ccccc2[nH]1)C1=C[C@H](c2ccccc2)C[C@H](OCc2ccc(CO)cc2)O1 | inactive
O=C(CC(=O)Nc1cccc(Cl)c1)NN=Cc1ccccc1 | 6.03 µM
CN(CC(=O)Nc1ccc(Cl)cc1)C(=O)c1ccc(-n2cncn2)c([N+](=O)[O-])c1 | 1.91 µM
O=C(Cn1cnc2ccccc21)Nc1cccc([N+](=O)[O-])c1 | 2.81 µM
CC(CC(=O)Nc1cccc(Br)c1)=NNC(=O)c1ccc(O)cc1O | 2.36 µM
O=C1[C@@H]2Cc3c([nH]c4ccccc34)C(c3cccc([N+](=O)[O-])c3)N2C(=O)CN1CCCO (stereo partly drawn) | 0.933 µM
Cc1ccc(NC(=O)CN(C)C(=O)CCSc2ccc(F)cc2)cc1 | 5.73 µM
O=C(CC=NOCc1ccc([N+](=O)[O-])cc1)Nc1ccc(Cl)cc1 | 2.87 µM
COc1ccc(OCC(O)CNC(=O)Nc2ccc(Cl)cc2)cc1 (stereo not drawn) | 7.55 µM
O=C(NCCc1nc2ccccc2[nH]1)c1ccc(Cl)c([N+](=O)[O-])c1 | 0.331 µM
O=C(C[C@H]1C(=O)N(Cc2ccccc2)C[C@@H]1c1ccc(Br)cc1)Nc1ccc(Br)cc1 | 2.97 µM
O=C(CN1CCSC1=NCc1ccccc1)c1ccc(Cl)c(Cl)c1 | 3.91 µM
O=C(CCC(=O)Nc1cccc([N+](=O)[O-])c1)NN=Cc1cccs1 | 8.37 µM
COc1cccc(NC(=O)CSc2nnc3c(n2)[nH]c2ccc(C)cc23)c1 | 0.0751 µM
O=C1CC(N(CCc2ccccc2)C(=S)Nc2ccccc2)C(=O)N1c1ccc(Br)cc1 (stereo not drawn) | 0.566 µM
CN(Cc1cc(Cl)cc(Cl)c1)[C@H]1C[C@H]2c3[nH]c4ccccc4c3CCN2C(=O)[C@H]1CO | 0.922 µM
O=C(N/C(=C\c1cccnc1)c1nc2ccccc2[nH]1)c1cccc(Br)c1 | 5.65 µM
O=C(NNC(=O)c1ccc(-n2cncn2)c([N+](=O)[O-])c1)c1ccc(Cl)cc1 | 7.41 µM
Oc1c(Cl)cc(Cl)cc1CNc1nc2ccccc2[nH]1 | 1.77 µM
O=C(NCc1nc2ccccc2[nH]1)C1=C[C@@H](c2csc3ccccc23)C[C@@H](OCCCCO)O1 | 4.65 µM
Clc1ccc(-c2nnc(SCc3nc4ccccc4[nH]3)o2)c(Cl)c1 | 0.933 µM
O=C(NCc1nc2ccccc2[nH]1)C1=C[C@@H](c2ccccc2)C[C@@H](OCc2ccc(CO)cc2)O1 | 2.21 µM

Now from value to compound:

IC50 | Compound
inactive | CCO[C@@H]1OC(C(=O)NCc2nc3ccccc3[nH]2)=C[C@H](c2ccc(Br)cc2)[C@H]1CCCO
1.14 µM | O=C(NCc1nc2ccccc2[nH]1)C1=C[C@@H](c2ccc(Br)cc2)C[C@@H](OCCCCO)O1
3.52 µM | O=C(NCc1nc2ccccc2[nH]1)C1=C[C@H](c2ccc(Br)cc2)C[C@H](OCc2ccc(CO)cc2)O1
7.3 µM | CCOC(=O)N1CCC(Nc2c(Nc3ccc(F)cc3)c(=O)c2=O)CC1
1.49 µM | CC(C)OCCCN1CC(=O)N2C(c3cccc([N+](=O)[O-])c3)c3[nH]c4ccccc4c3C[C@H]2C1=O (stereo partly drawn)
9.39 µM | CCO[C@H]1OC(C(=O)NCc2nc3ccccc3[nH]2)=C[C@@H](c2ccc(Br)cc2)[C@@H]1CCCO
1.49 µM | O=C(NNC(=O)c1cc(-c2ccc(Cl)c(Cl)c2)nc2ccccc12)Nc1ccccc1
2.66 µM | O=C(NCc1nc2ccccc2[nH]1)C1=C[C@@H](C2CC2)C[C@@H](OCc2ccc(CO)cc2)O1
0.6 µM | COc1ccccc1NS(=O)(=O)c1cccc(NC(=O)Nc2ccccc2)c1
5.39 µM | CC(C)(C)[C@H]1C=C(C(=O)NCc2nc3ccccc3[nH]2)O[C@@H](OCc2ccc(CO)cc2)C1
8.12 µM | CC(C)(C)[C@@H]1C=C(C(=O)NCc2nc3ccccc3[nH]2)O[C@H](OCc2ccc(CO)cc2)C1
2.03 µM | O=C(NCc1nc2ccccc2[nH]1)C1=C[C@@H](c2ccc3c(c2)OCO3)C[C@@H](OCCCCO)O1
0.926 µM | COc1ccc2[nH]c3nc(SCC(=O)Nc4ccc5c(c4)OCO5)nnc3c2c1
4.27 µM | Brc1cnc2nc(SCc3nc4ccccc4[nH]3)[nH]c2c1
1.79 µM | O=C(NCc1nc2ccccc2[nH]1)C1=C[C@H](c2csc3ccccc23)C[C@H](OCCCCO)O1
0.879 µM | CC(=O)c1ccc(N2CCN(C(=O)CCCn3c(=O)[nH]c4ccc(Br)cc4c3=O)CC2)cc1

IC50 | Compound
inactive | Cc1[nH]c2ccc(Br)cc2c(=O)c1CN1CCCCCC1
2.22 µM | CC(=O)c1c[nH]c(C(=O)NCc2cccc(C(F)(F)F)c2)c1
1.31 µM | O=C(CC=NOCc1ccc([N+](=O)[O-])cc1)Nc1ccc(Br)cc1
4.27 µM | CCCCCCCCCC1NC(C(=O)O)Cc2c1[nH]c1ccccc21 (stereo not drawn)
6.22 µM | O=C(NCc1nc2ccccc2[nH]1)C1=C[C@H](c2ccc3c(c2)OCO3)C[C@H](OCCCCO)O1
0.439 µM | C[C@H](O)[C@@H]1C(=O)N2CCc3c([nH]c4ccccc34)[C@@H]2C[C@@H]1N(C)Cc1ccc2c(c1)OCO2
2.91 µM | O=C(Nc1ccc(F)c(Cl)c1)C1CC(=O)n2c(nc3ccccc32)N1 (stereo not drawn)
inactive | O=C1CC(SCc2nc3ccccc3[nH]2)C(=O)N1c1cccc(Cl)c1 (stereo not drawn)
2.03 µM | O=C(NCc1nc2ccccc2[nH]1)C1=C[C@@H](c2ccc(Br)cc2)C[C@@H](OCc2ccc(CO)cc2)O1
3.11 µM | O=C(NCc1nc2ccccc2[nH]1)C1=C[C@H](c2ccc(Br)cc2)C[C@H](OCCCCO)O1
0.717 µM | CN1CC(=O)N2C(c3cccc([N+](=O)[O-])c3)c3[nH]c4ccccc4c3C[C@H]2C1=O (stereo partly drawn)
4.59 µM | COc1ccccc1-n1c(SCC(=O)Nc2ccc(Cl)cc2)nc(O)c(Cc2ccccc2)c1=O
8.11 µM | O=C(NCc1nc2ccccc2[nH]1)C1=C[C@H](C2CC2)C[C@H](OCc2ccc(CO)cc2)O1
9.23 µM | Clc1ccc(OCCSCc2nc3ccccc3[nH]2)cc1
0.292 µM | O=C(Cn1cc(C(=O)C(=O)N2CCOCC2)c2ccccc21)Nc1cccc(C(F)(F)F)c1
